The values below come from publication PMC10848769, “Tartrolon E, a secondary metabolite of a marine symbiotic bacterium, is a potent inhibitor of asexual and sexual Plasmodium falciparum” (Antimicrobial Agents and Chemotherapy, 2024).

A word on the EC50: it is the concentration giving half of the maximal effect.

Read-outs that look alike come from different tables or passages of the source.

Data set [1] has as its system P. falciparum 3D7 asexual blood stages. The experiment in a line: Standard 72-hour inhibitor-response (parasite proliferation) assay. The format is cell-based. The conditions noted are these: Plasmodium falciparum; 3D7, 72-hour assay; read-out: 3D7 EC50.
A further data set deals with P. falciparum clone 3D7. The experiment in a line: Standard growth inhibition assay, Pf clone panel. The conditions noted are these: Plasmodium falciparum; clone 3D7, Netherlands; read-out: EC50 (nM) (95% CI). The class given is cell-based. As for the experimental part:
(§1) A diverse panel of P. falciparum clones, collected from four continents with varying genetic backgrounds and well-characterized susceptibilities to novel and existing antimalarials, was treated with TrtE and DHA in standard growth inhibition assays. […] Additional studies are needed to determine whether there is any similarity in mechanism between TrtE and DHA.

The subject of another data set is P. falciparum clone 7G8. Kind of data set: Standard growth inhibition assay, Pf clone panel. The format is cell-based. The conditions noted are these: Plasmodium falciparum; clone 7G8, Brazil; read-out: EC50 (nM) (95% CI). As for the experimental part:
as §1

Data set [2] relates to P. falciparum clone D10 w/ yDHODH. Kind of data set: Standard growth inhibition assay, Pf clone panel. The format is cell-based. The following applies: Plasmodium falciparum, D10, read-out: EC50 (nM) (95% CI). As for the experimental part:
as §1

For a further data set, the system named is P. falciparum clone D6. The experiment in a line: Standard growth inhibition assay, Pf clone panel. The format is cell-based. The following applies: Plasmodium falciparum; clone D6, Sierra Leone; read-out: EC50 (nM) (95% CI). The protocol: as §1
The test system of a further data set is P. falciparum clone Dd2. The experiment in a line: Standard growth inhibition assay, Pf clone panel. The class given is cell-based. The conditions noted are these: Plasmodium falciparum. As for the experimental part: as §1
A further data set relates to P. falciparum clone GMC1. The experiment in a line: Standard growth inhibition assay, Pf clone panel. The class given is cell-based. The conditions noted are these: Plasmodium falciparum; clone GMC1, Goa, India; read-out: EC50 (nM) (95% CI). As for the experimental part:
as §1

The next data set deals with P. falciparum clone HB3. Kind of data set: Standard growth inhibition assay, Pf clone panel. The format is cell-based. The following applies: Plasmodium falciparum; clone HB3, Honduras; read-out: EC50 (nM) (95% CI). The protocol: as §1
For data set [3], the system named is P. falciparum clone IPC 3445. The experiment in a line: Standard growth inhibition assay, Pf clone panel. The conditions noted are these: Plasmodium falciparum; clone IPC 3445, Palin, Cambodia; read-out: EC50 (nM) (95% CI). The class given is cell-based. The protocol: as §1
Data set [4] relates to P. falciparum clone IPC 5202. The experiment in a line: Standard growth inhibition assay, Pf clone panel. The format is cell-based. The following applies: Plasmodium falciparum; clone IPC 5202, Battambang, Cambodia; read-out: EC50 (nM) (95% CI). As for the experimental part:
as §1

The subject of the next data set is P. falciparum clone NF54. The experiment in a line: Standard growth inhibition assay, Pf clone panel. The format is cell-based. The following applies: Plasmodium falciparum; clone NF54, Netherlands; read-out: EC50 (nM) (95% CI). The protocol: as §1
The test system of data set [5] is P. falciparum clone TM90C2A. The experiment in a line: Standard growth inhibition assay, Pf clone panel. The class given is cell-based. The conditions noted are these: Plasmodium falciparum, Thailand, read-out: EC50 (nM) (95% CI). As for the experimental part:
as §1

Another data set concerns P. falciparum clone V1/S. Kind of data set: Standard growth inhibition assay, Pf clone panel. The format is cell-based. The following applies: Plasmodium falciparum, Vietnam, read-out: EC50 (nM) (95% CI). The protocol: as §1
Data set [6] deals with diverse panel of P. falciparum clones. The experiment in a line: Standard growth inhibition assays, whole panel. The class given is cell-based, Plasmodium falciparum. The conditions noted are these: including two artemisinin-resistant clones from Western Cambodia. As for the experimental part:
as §1

Data set [7] has as its system Pf NF54 late-stage gametocytes (stage III to stage V). The experiment in a line: Late-stage gametocyte viability assay (alamarBlue). The following applies: Plasmodium falciparum, 72 h, 3 days treatment, three independent experiments. The class given is cell-based. The protocol:
(§2) Gametocytes of Pf NF54, the competent gametocyte-producing clone, were treated with TrtE as previously described ([15], [16]). […] To validate the in vitro gametocytocidal activity of TrtE, mosquito infectivity assays were conducted. […] Oocyst development in mosquitoes represents a significant bottleneck in the life cycle of Plasmodium spp. where transmission can be efficiently interrupted ([18]).
Fig 3 TrtE activity against gametocytes. Enriched, late-stage gametocytes were treated for 3 days with TrtE and then viability-tested with alamarBlue (Invitrogen) ([15], [16]). Three independent experiments (squares, triangles, and diamonds) determined the average EC50 to be 140 ± 42 nM.
On the technique in general: Alamar Blue is a resazurin reagent that responds to reducing activity.

The subject of data set [8] is P. falciparum NF54 oocyst development in Anopheles dirus mosquitoes. Kind of data set: Mosquito infectivity assay (standard membrane feeding, oocyst count). The format is in vivo, Plasmodium falciparum. The following applies: 100 nM TrtE on late-stage gametocytes, fed to Anopheles dirus, oocysts counted after 9 days, four independent experiments, P = 0.016. As for the experimental part:
as §2
Fig 4 TrtE inhibition of oocyst development in mosquitoes. Late-stage Pf NF54 gametocytes were incubated with 100 nM TrtE, the approximate gametocidal EC50, or left untreated. Following incubation and development to stage V, the cultures were fed to female Anopheles dirus mosquitoes using standard membrane feeding techniques. After 9 days, the mosquitoes were dissected, and oocysts were stained and counted. The infection rate was measured as the ratio of mosquitoes with one or more oocysts to the number of dissected mosquitoes. ^*P < 0.05.

Another data set relates to Pf 3D7. The experiment in a line: Parasite growth alongside mammalian cytotoxicity assays. The class given is cell-based. The following applies: Plasmodium falciparum; 3D7, grown under identical conditions alongside mammalian cells; read-out: EC50 (µM) (95% CI) 3D7. The protocol: (§3) In preliminary experiments to evaluate cytotoxicity to mammalian cells, the murine leukemia L1210 cell line and the human liver cell line HepG2 were grown under identical conditions alongside Pf 3D7. These were treated with TrtE, the chemotherapeutic methotrexate, and DSM265, an inhibitor of parasite dihydroorotate dehydrogenase ([19]).

The test system of data set [9] is human liver cell line HepG2. The experiment in a line: In vitro cytotoxicity assay. The class given is cell-based. The conditions noted are these: for EC50: Homo sapiens. The protocol: as §3
The test system of data set [10] is murine leukemia L1210 cell line. The experiment in a line: In vitro cytotoxicity assay. The protocol: as §3
In a further data set the test system is asexual parasites. The following applies: preliminary single-step selection, data not shown.

As for `C[C@H]1[C@@H](O)O[C@@H]2O[C@@]3(C)CC[C@H]4[C@H](C)CC[C@@H]1[C@@]24OO3` [DHA, dihydroartemisinin], the EC50 in data set [1] turned out to be 0.129 nM; with P. falciparum clone 3D7, 0.11 nM; in the data set on P. falciparum clone 7G8 it was 0.095 nM; in data set [2], 0.12 nM; in the data set with P. falciparum clone D6, 0.17 nM; in the data set on P. falciparum clone Dd2 (clone Dd2, SE Asia, read-out: EC50 (nM) (95% CI)), 0.14 nM. Besides, the EC50 in the data set with P. falciparum clone GMC1 stood at 0.21 nM; with P. falciparum clone HB3, 0.16 nM; in data set [3], 0.92 nM; in data set [4], 0.94 nM; with P. falciparum clone NF54, 0.15 nM; in data set [5], 0.091 nM. For the same molecule, the EC50 in the data set on P. falciparum clone V1/S stood at 0.084 nM.

Turning to `C[C@@H]1CCC2CC(=O)C[C@@H](O)CC/C=C/C=C\CC[C@H](C)OC(=O)[C@@H]3O[B-]45O[C@@H](C(=O)O[C@@H](C)CC/C=C\C=C\CC[C@H](O)CC(=O)CC6CC[C@@H](C)[C@]3(O6)O4)[C@@]1(O2)O5` [Tartrolon E], the EC50 in [1] worked out at 0.105 nM; in the data set on P. falciparum clone 3D7 it was 0.16 nM; with P. falciparum clone 7G8 it was 0.18 nM; in [2] it was 0.19 nM; in the data set with P. falciparum clone D6, 0.14 nM; in the data set with P. falciparum clone Dd2 (DD2, read-out: EC50 (nM) (95% CI)), 0.28 nM. Moreover, the 50% effective concentration (EC50) came out at 0.26 nM in the data set with P. falciparum clone GMC1; 0.13 nM in the data set on P. falciparum clone HB3; 0.73 nM in data set [3]; 0.81 nM in data set [4]; 0.2 nM in the data set on P. falciparum clone NF54; 0.16 nM in [5]. In addition, the concentration giving a half-maximal response (EC50) in the data set on P. falciparum clone V1/S is 0.31 nM; in [7] it was 140 nM; in the data set with Pf 3D7, 0.00016 µM; in data set [9] (HepG2, read-out: EC50 (µM) (95% CI) HepG2), 0.071 µM; in data set [9] (HepG2, as printed in text, read-out: HepG2 EC50), 0.07 µM; in [10] (Mus musculus, L1210, read-out: EC50 (µM) (95% CI) L1210), 0.23 µM. The “Concentration inhibiting all clones of the panel” value in [6] is “sub-nanomolar concentrations”. Moreover, the “Mosquito infection by P. falciparum (infection rate, oocysts)” value in [8] is on record as “significantly inhibited mosquito infection”. Moreover, the “Selectivity index (EC50 of HepG2/EC50 3D7)” value in data set [9] (HepG2 vs 3D7) was determined as 444. The “Concentration inhibiting L1210 growth” value in [10] (L1210) was “sub-micromolar concentrations”. In addition, the “Selectivity index (EC50 of L1210/EC50 3D7)” value in data set [10] (L1210 vs 3D7) is recorded as 1,438. In addition, in the data set with asexual parasites, the “Hurdle to resistance under drug pressure” value is “high hurdles to resistance”.
